Results as given in PMC10517258, “PYRIDOX(AM)INE 5′-PHOSPHATE OXIDASE3 of Arabidopsis thaliana maintains carbon/nitrogen balance in distinct environmental conditions” (Plant Physiology, 2023).

How the values were obtained:
Type in all cases: biochemical
NNRD (dehydratase) = biological target: T1, NNRD (dehydratase) (Arabidopsis thaliana, UniProt Q94AF2); test: spectrophotometric dehydratase assay, […] and […] nm; settings: 1 mM ATP, 2 mM MgCl2, 5 mM KCl, Tris-HCl pH 8, 25 °C; racemic NADHX
T1 construct: gene At5g19150; no transit peptide (residues 2 to 45 removed), C-terminal His6 tag, pET-24b, E. coli BL21(DE3); locus printed as At5g12150, probably a misprint of At5g19150
T1 sequence (Q94AF2 46-365): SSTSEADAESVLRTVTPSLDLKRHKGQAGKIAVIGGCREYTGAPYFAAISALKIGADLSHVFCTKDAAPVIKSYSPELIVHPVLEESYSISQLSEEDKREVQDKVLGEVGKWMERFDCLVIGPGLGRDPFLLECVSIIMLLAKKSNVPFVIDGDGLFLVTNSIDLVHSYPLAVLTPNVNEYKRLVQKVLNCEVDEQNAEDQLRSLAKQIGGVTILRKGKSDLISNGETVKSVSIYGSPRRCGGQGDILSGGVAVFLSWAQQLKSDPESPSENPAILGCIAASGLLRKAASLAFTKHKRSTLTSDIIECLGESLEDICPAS

[1] = biological target: T2, Arabidopsis NR2 (NIA2, At1g37130) (Arabidopsis thaliana, UniProt P11035); test: nitrate reductase activity with APADH, absorbance at […] nm; settings: electron donor replacing NADH, 0.1 mM; 10 mM potassium nitrate, 0.005 mM FAD, phosphate pH 7.5, 25 °C
T2 construct: commercial recombinant enzyme expressed and purified from Pichia pastoris
T2 sequence (P11035 1-917): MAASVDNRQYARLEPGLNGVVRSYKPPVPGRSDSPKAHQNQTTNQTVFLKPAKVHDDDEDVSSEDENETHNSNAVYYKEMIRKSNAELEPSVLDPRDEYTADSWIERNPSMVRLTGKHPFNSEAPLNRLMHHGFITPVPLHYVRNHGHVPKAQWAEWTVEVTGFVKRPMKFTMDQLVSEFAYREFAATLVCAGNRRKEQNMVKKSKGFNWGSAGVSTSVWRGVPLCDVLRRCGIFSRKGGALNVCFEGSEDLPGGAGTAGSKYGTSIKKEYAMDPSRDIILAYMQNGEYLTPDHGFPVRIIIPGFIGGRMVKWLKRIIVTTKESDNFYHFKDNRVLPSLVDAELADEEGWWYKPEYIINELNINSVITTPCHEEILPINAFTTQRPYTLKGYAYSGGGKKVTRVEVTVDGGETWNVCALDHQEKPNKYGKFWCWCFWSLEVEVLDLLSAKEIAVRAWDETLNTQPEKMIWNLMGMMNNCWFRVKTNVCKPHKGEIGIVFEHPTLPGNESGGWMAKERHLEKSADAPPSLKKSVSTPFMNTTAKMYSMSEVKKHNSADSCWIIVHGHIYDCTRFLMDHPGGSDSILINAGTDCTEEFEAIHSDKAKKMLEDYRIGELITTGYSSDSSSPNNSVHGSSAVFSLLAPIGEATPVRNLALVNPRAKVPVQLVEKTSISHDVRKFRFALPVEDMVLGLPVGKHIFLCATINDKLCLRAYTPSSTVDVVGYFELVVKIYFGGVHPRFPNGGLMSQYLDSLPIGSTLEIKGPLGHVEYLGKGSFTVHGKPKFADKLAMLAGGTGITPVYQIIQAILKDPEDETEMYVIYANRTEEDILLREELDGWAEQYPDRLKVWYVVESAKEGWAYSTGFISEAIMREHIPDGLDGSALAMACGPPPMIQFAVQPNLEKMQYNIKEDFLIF

PDX3 (At5g49970) = biological target: T3, PDX3 (At5g49970) (Arabidopsis thaliana, UniProt Q9LTX3); test: coupled spectrophotometric NADHX repair assay, […] and […] nm; settings: epimerization by NNRE domain; coupled to NNRD; 1 mM ATP, 2 mM MgCl2, 5 mM KCl, Tris-HCl pH 8, 25 °C; racemic NADHX
T3 construct: gene PPOX1; cDNA without predicted transit peptide (residues 2 to 73 removed), N-terminal His6 tag, pET-28a, E. coli BL21(DE3); NNRE and POX domains both present
T3 sequence (Q9LTX3 74-530): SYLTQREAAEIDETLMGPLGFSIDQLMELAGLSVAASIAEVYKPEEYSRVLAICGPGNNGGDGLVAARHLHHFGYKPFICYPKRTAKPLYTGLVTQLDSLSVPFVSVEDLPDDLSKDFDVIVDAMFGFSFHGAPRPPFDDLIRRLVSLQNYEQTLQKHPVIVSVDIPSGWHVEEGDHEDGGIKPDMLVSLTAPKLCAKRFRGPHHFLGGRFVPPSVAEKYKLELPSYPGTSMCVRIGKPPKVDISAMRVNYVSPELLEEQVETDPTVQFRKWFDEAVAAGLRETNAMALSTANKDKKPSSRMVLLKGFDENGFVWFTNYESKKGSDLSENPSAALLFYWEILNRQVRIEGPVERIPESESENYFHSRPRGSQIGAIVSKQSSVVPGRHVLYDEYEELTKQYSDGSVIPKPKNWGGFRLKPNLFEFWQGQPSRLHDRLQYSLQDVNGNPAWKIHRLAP

NC(=O)C1=CN([C@@H]2O[C@H](COP(=O)(O)OP(=O)(O)OC[C@H]3O[C@@H](n4cnc5c(N)ncnc54)[C@H](O)[C@@H]3O)[C@@H](O)[C@H]2O)[C@@H](O)CC1 (mixture of isomers) [(S)-NADHX]
spectrophotometric dehydratase assay, 290 and 340 nm (NNRD (dehydratase)): (S)-NADHX within a racemic mixture of NADHX is dehydrated to NADH by NNRD

CC(=O)C1=CN([C@@H]2O[C@H](COP(=O)(O)OP(=O)(O)OC[C@H]3O[C@@H](n4cnc5c(N)ncnc54)[C@H](O)[C@@H]3O)[C@@H](O)[C@H]2O)C=CC1 [APADH]
nitrate reductase activity with APADH, absorbance at 363 nm [1]: the latter was replaced with its analog, 3-acetylpyridine-adenine dinucleotide (APADH

NC(=O)C1=CN([C@@H]2O[C@H](COP(=O)(O)OP(=O)(O)OC[C@H]3O[C@@H](n4cnc5c(N)ncnc54)[C@H](O)[C@@H]3O)[C@@H](O)[C@H]2O)[C@H](O)CC1 (mixture of isomers) [(R)-NADHX]
coupled spectrophotometric NADHX repair assay, 290 and 340 nm (PDX3 (At5g49970)): leads to epimerization of (R)-NADHX in the racemate to (S)-NADHX by the NNRE domain
